# Reference: US4925870A, “Therapeutic use of proanthocyanidine A2 as a cytoprotective agent” (Inverni Della Beffa SpA, priority 1985, dated 1990)
# Entries after “also recorded” stand apart in the source; their conditions may differ.
# Tests used:
# rat brain homogenate = test: In vitro inhibition of lipid peroxidation (MDA formation) on rat brain homogenate; assay type: biochemical; details: for IC50: rat brain homogenate
# Experimental: (§1) Proanthocyanidine A2 was assayed for anti-lipid peroxidation activity "in vitro" on rat brain homogenate according to the method of Saeed S. A. et al., Biochem. Soc. Trans 9, 442-443, 1981 and on rat hepatic microsomes according to the method of Jha H. C. et al., Biochem. Pharmacol. 34 , 1367-1369, 1985. […] This activity was confirmed on a rat brain "ex vivo" test.
# rat hepatic microsomes [1] = test: In vitro inhibition of lipid peroxidation (MDA formation) on rat hepatic microsomes; assay type: biochemical; details: for IC50: in vitro, rat hepatic microsomes + NADPH + Fe^2+ ADP
# rat hepatic microsomes [2] = test: NADPH consumption by hepatic microsomes; assay type: biochemical; details: for IC50: NADPH 500 μM + Fe^2+ 20 μM + ADP 500 μM
# [3] = Wound healing activity on prednisone treated rats by topical application; assay type: in vivo
# Text: (§2) The triterpene fraction obtained from Centella asiatica (CATS), a well-known cicatrizant or healing agent widely used in some European countries, has been chosen as comparison drug.
# [4] = Wound healing activity by oral route in rats treated with prednisone; assay type: in vivo; details: for Surface after 3 days of administrations (m ± s.e.) / percent variation of surface in comparison with prednisone controls: oral; for percent variation of surface in comparison with prednisone controls: after 3 days
# Text: as §2
# [5] = Healing (cicatrising) activity, general statement (topical and oral route, normal and steroid treated animals); details: in vivo
# [6] = Acute toxicity in the rat; details: in vivo
# Experimental: (§3) The acute toxicity of proanthocyanidine A2 was determined in the mouse and rat on administration by the oral and intreperitoneal routes.
# [7] = Anti-ulcer activity after i.p. administration on ASA induced gastric ulcers in rats; assay type: in vivo; details: for Changes in U.I. in comparison with controls / No. of stomach without lesions / Ulceration index (U.I.) mean: i.p., n = 10
# Text: This activity is believed to be a consequence of its healing activity and microcirculation protecting activity.
# [8] = Acute toxicity on topical administration; details: administered topically
# [9] = Capillary resistance in rats fed on vitamin P deprived diet; assay type: in vivo; details: for Percent increase (capillary resistance) in comparison with controls: n = 8
# Experimental: The latter was evaluated by the method of Charlier R. et al., Arch. Int. Physiol. Bioch.
# [10] = Activity on wound scar resistance in normal mice by oral route (force necessary for breaking a cutaneous scar); assay type: in vivo; details: n = 20
# Text: The method used was that of Sixth et al., Arzneim. Forsch. 18, 1460, 1968.
# [11] = Acute toxicity in the mouse; details: for LD50: mouse, in vivo
# Experimental: as §3
# rat brain = test: Rat brain ex vivo anti-lipid peroxidation test
# Experimental: as §1
smiles,measurement,setting,value
"O=c1c(O)c(-c2ccc(O)c(O)c2)oc2cc(O)cc(O)c12 [Quercetin, reference compound]",IC50,rat brain homogenate; in vitro,900 nM
same,"column headed by drawing 2 under MDA formation (ratio of hepatic microsomes IC50 to brain homogenate IC50, by arithmetic)",rat hepatic microsomes [1],5.7
same,IC50,rat hepatic microsomes [1],5100 nM
same,IC50,rat hepatic microsomes [2],17000 nM
same,"column headed by drawing 3 (hepatic microsomes) (ratio of NADPH consumption IC50 to MDA formation IC50, by arithmetic)",rat hepatic microsomes [2]; hepatic microsomes,3.3
Oc1cc(O)c2c(c1)O[C@@]1(c3ccc(O)c(O)c3)Oc3cc(O)c4c(c3[C@@H]2[C@H]1O)O[C@H](c1ccc(O)c(O)c1)[C@H](O)C4 [Proanthocyanidine A2],Wound area (m ± s.e.),"[3]; concentration 1%, day 0 (baseline), n = 10",324.55 ± 3.77 mm^2
same,percent variation of wound area in comparison with prednisone controls,"[3]; concentration 1%, day 1",-8.17%
same,Wound area (m ± s.e.),"[3]; concentration 1%, day 1, n = 10",317.39 ± 3.37 mm^2
same,percent variation of wound area in comparison with prednisone controls,"[3]; concentration 1%, day 2",-9.70%
same,Wound area (m ± s.e.),"[3]; concentration 1%, day 2, n = 10",315.04 ± 3.58 mm^2
same,percent variation of wound area in comparison with prednisone controls,"[3]; concentration 1%, day 3",-9.60%
same,Wound area (m ± s.e.),"[3]; concentration 1%, day 3, n = 10",308.01 ± 3.77 mm^2
same,Wound area (m ± s.e.),"[3]; concentration 2%, day 0 (baseline), n = 10",327.71 ± 2.92 mm^2
same,percent variation of wound area in comparison with prednisone controls,"[3]; concentration 2%, day 1",-8.17%
same,Wound area (m ± s.e.),"[3]; concentration 2%, day 1, n = 10",317.39 ± 3.36 mm^2
same,percent variation of wound area in comparison with prednisone controls,"[3]; concentration 2%, day 2",-12.38%
same,Wound area (m ± s.e.),"[3]; concentration 2%, day 2, n = 10",305.69 ± 3.89 mm^2
same,percent variation of wound area in comparison with prednisone controls,"[3]; concentration 2%, day 3",-15.88%
same,Wound area (m ± s.e.),"[3]; concentration 2%, day 3, n = 10",286.62 ± 3.74 mm^2
same,Surface after 3 days of administrations (m ± s.e.),[4]; 50 mg/kg,280.47 ± 7.01 mm^2
same,percent variation of surface in comparison with prednisone controls,[4]; 50 mg/kg,-9.15%
same,Surface after 3 days of administrations (m ± s.e.),[4]; 100 mg/kg,271.82 ± 5.35 mm^2
same,percent variation of surface in comparison with prednisone controls,[4]; 100 mg/kg,-11.95%
same,Surface after 3 days of administrations (m ± s.e.),[4]; 200 mg/kg,265.88 ± 4.38 mm^2
same,percent variation of surface in comparison with prednisone controls,[4]; 200 mg/kg,-13.87%
same,Surface after 3 days of administrations (m ± s.e.),[4]; 400 mg/kg,259.99 ± 7.72 mm^2
same,percent variation of surface in comparison with prednisone controls,[4]; 400 mg/kg,-15.78%
same,reduction of the area of wounds (in words),"[4]; rats, Tables 2 and 3",favourable effect
same,healing activity (in words),[5],higher than that of known drugs employed in this therapeutic field; also recorded: manifests itself by the topical and also oral route both in normal animals and in animals in which the healing process has been slowed down by treatment with steroids; also recorded: superior to that of known drugs employed in this field
same,anti-lipid peroxidation activity (in words),rat brain homogenate,strong anti-lipid peroxidation activity
same,IC50,rat brain homogenate; in vitro,450 nM
same,inhibition of MDA (malondialdehyde) formation (in words),"rat brain homogenate; in vitro, rat brain homogenate and rat hepatic microsomes",strongly inhibited
same,LD50,[6]; ip,> 3000 mg/kg
same,LD50,[6]; po,> 6000 mg/kg
same,Changes in U.I. in comparison with controls,[7]; 100 mg/kg,"-18,4"
same,No. of stomach without lesions,[7]; 100 mg/kg,0
same,Ulceration index (U.I.) mean,[7]; 100 mg/kg,"39,6"
same,Changes in U.I. in comparison with controls,[7]; 200 mg/kg,"-28,1"
same,No. of stomach without lesions,[7]; 200 mg/kg,0
same,Ulceration index (U.I.) mean,[7]; 200 mg/kg,"34,9"
same,Changes in U.I. in comparison with controls,[7]; 400 mg/kg,"-40,8"
same,No. of stomach without lesions,[7]; 400 mg/kg,0
same,Ulceration index (U.I.) mean,[7]; 400 mg/kg,"28,7"
same,anti-ulcer activity (in words),[7]; ulcer protection tests,active in ulcer protection tests; also recorded: particularly active as an anti-ulcer agent
same,acute toxicity (in words),[8],negligable acute toxicity
same,vasotropic / venotonic activity (in words),[9]; capillary permeability and resistance,possesses a vasotropic activity in terms of modification of capillary permeability and resistance; also recorded: normalizing conditions of impaired capillary permeability and capillary fragility
same,Percent increase (capillary resistance) in comparison with controls,"[9]; oral 200 mg/kg × 3 days, 0 hours after third administration",5%
same,Percent increase (capillary resistance) in comparison with controls,"[9]; oral 200 mg/kg × 3 days, 2 hours after third administration",9%
same,Percent increase (capillary resistance) in comparison with controls,"[9]; oral 200 mg/kg × 3 days, 4 hours after third administration",9%
same,Percent increase (capillary resistance) in comparison with controls,"[9]; oral 200 mg/kg × 3 days, 6 hours after third administration",6%
same,Percent increase (capillary resistance) in comparison with controls,"[9]; oral 400 mg/kg × 3 days, 0 hours after third administration",7%
same,Percent increase (capillary resistance) in comparison with controls,"[9]; oral 400 mg/kg × 3 days, 2 hours after third administration",15%
same,Percent increase (capillary resistance) in comparison with controls,"[9]; oral 400 mg/kg × 3 days, 4 hours after third administration",14%
same,Percent increase (capillary resistance) in comparison with controls,"[9]; oral 400 mg/kg × 3 days, 6 hours after third administration",13%
same,"column headed by drawing 2 under MDA formation (ratio of hepatic microsomes IC50 to brain homogenate IC50, by arithmetic)",rat hepatic microsomes [1],1.8
same,IC50,rat hepatic microsomes [1],800 nM
same,Percent increase in comparison (with controls),[10]; 100 mg/kg,+32.5%
same,Tension (m + S.E.),[10]; 100 mg/kg,104.11 + 4.25 g
same,Percent increase in comparison (with controls),[10]; 200 mg/kg,+46.6%
same,Tension (m + S.E.),[10]; 200 mg/kg,115.12 + 4.90 g
same,LD50,[11]; ip,> 6000 mg/kg
same,LD50,[11]; po,> 6000 mg/kg
same,acute toxicity (in words),"[11]; oral and intraperitoneal routes, mouse and rat",does not exhibit significant acute toxicity
same,IC50,rat hepatic microsomes [2],14000 nM
same,"column headed by drawing 3 (hepatic microsomes) (ratio of NADPH consumption IC50 to MDA formation IC50, by arithmetic)",rat hepatic microsomes [2]; hepatic microsomes,17.5
same,inhibiting activity on NADPH consumption (in words),"rat hepatic microsomes [2]; in vitro, hepatic microsomes",low inhibiting activity
same,anti-lipid peroxidation activity ex vivo (in words),rat brain,confirmed
